Measurements from the NIST ThermoML archive (doi:10.1016/j.fluid.2009.04.021).
Numbers after ± are expanded uncertainties.

Settings: 101.33 kPa, Liquid, Buoyancy - hydrostatic balance

CCCCn1cc[n+](C)c1.F[B-](F)(F)F [1-butyl-3-methylimidazolium tetrafluoroborate]
Settings	mass density [kg/m3]
281.45 K	1213.36 ± 10
283.01 K	1212.07 ± 10
288.41 K	1207.87 ± 10
288.49 K	1207.91 ± 10
293.2 K	1204.14 ± 10
293.49 K	1204.59 ± 10
298.19 K	1200.74 ± 10
298.29 K	1200.69 ± 10
303.04 K	1197.96 ± 10
303.25 K	1196.93 ± 10
308.02 K	1192.73 ± 10
308.14 K	1193.22 ± 10
312.86 K	1190.14 ± 10
313.44 K	1190.35 ± 10
318.17 K	1187.07 ± 10
318.18 K	1185.49 ± 10
323.04 K	1183.15 ± 10
323.06 K	1184.13 ± 10
327.58 K	1180.59 ± 10
328.06 K	1179.55 ± 10
332.87 K	1175.86 ± 10
333.24 K	1177.1 ± 10
337.9 K	1173.42 ± 10
337.97 K	1172.99 ± 10
342.78 K	1169.84 ± 10
343.45 K	1170.2 ± 10
347.5 K	1166.66 ± 10
348.11 K	1166.78 ± 10
350.81 K	1165.3 ± 10
352.74 K	1163.68 ± 10

CCn1cc[n+](C)c1.F[B-](F)(F)F [1-ethyl-3-methylimidazolium tetrafluoroborate]
Settings	mass density [kg/m3]
293.41 K	1287.17 ± 10
298.14 K	1283.2 ± 10
303.08 K	1279.88 ± 10
307.94 K	1275.06 ± 10
313 K	1271.88 ± 10
318.7 K	1267.21 ± 10
322.5 K	1265.05 ± 10
328.4 K	1260.59 ± 10
332.78 K	1257.46 ± 10
338.22 K	1254.07 ± 10
343.05 K	1251.15 ± 10
347.97 K	1247.07 ± 10
353.07 K	1243.6 ± 10

CCCCCCn1cc[n+](C)c1.F[B-](F)(F)F [1-hexyl-3-methylimidazolium tetrafluoroborate]
Settings	mass density [kg/m3]
283.61 K	1166.71 ± 10
288.57 K	1163.12 ± 10
293.48 K	1159.99 ± 10
298.22 K	1156.57 ± 10
303.11 K	1152.91 ± 10
308.16 K	1149.26 ± 10
313.25 K	1146.23 ± 10
318.33 K	1142.64 ± 10
323 K	1139.57 ± 10
328.63 K	1135.72 ± 10
333.69 K	1132.53 ± 10
338.15 K	1129.41 ± 10
343.04 K	1126.12 ± 10
348.26 K	1122.71 ± 10
352.72 K	1119.68 ± 10
